Test results published in PubChem BioAssay (NCI).
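Compound exposure: 48 hours, 5 concentrations, 96-well plates. TGI: concentration producing complete growth inhibition.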

Experiments:
Assay in all cases: NCI-60 cell line screen, 48 h
[1] = tested on: MALME-3M melanoma
[2] = tested on: HOP-62 NSCLC
[3] = tested on: SR leukemia
[4] = tested on: HL-60(TB) leukemia
[5] = tested on: KM12 colon
[6] = tested on: UO-31 renal
[7] = tested on: OVCAR-5 ovarian
[8] = tested on: SK-MEL-5 melanoma
[9] = tested on: OVCAR-8 ovarian
[10] = tested on: M14 melanoma
[11] = tested on: MDA-MB-231 breast
[12] = tested on: NCI-H23 lung
[13] = tested on: SK-OV-3 ovarian
[14] = tested on: EKVX NSCLC
[15] = tested on: MDA-N
[16] = tested on: K-562 leukemia
[17] = tested on: NCI-H226 lung
[18] = tested on: HCT-116 colon
[19] = tested on: RXF 393 renal
[20] = tested on: DU-145 prostate
[21] = tested on: SK-MEL-28 melanoma
[22] = tested on: SF-539 CNS
[23] = tested on: IGROV1 ovarian
[24] = tested on: OVCAR-4 ovarian
[25] = tested on: SW-620 colon
[26] = tested on: SK-MEL-2 melanoma
[27] = tested on: HT29 colon
[28] = tested on: SNB-75 CNS
[29] = tested on: SF-295 CNS
[30] = tested on: SN12C renal
[31] = tested on: 786-0 renal
[32] = tested on: MOLT-4 leukemia
[33] = tested on: A549 NSCLC
[34] = tested on: HS 578T breast
[35] = tested on: T-47D breast
[36] = tested on: NCI-H460 lung
[37] = tested on: RPMI-8226 leukemia
[38] = tested on: MDA-MB-435
[39] = tested on: TK-10 renal
[40] = tested on: A498 renal
[41] = tested on: HOP-92 NSCLC
[42] = tested on: HCT-15 colon
[43] = tested on: CAKI-1 renal
[44] = tested on: SNB-19 CNS
[45] = tested on: PC-3 prostate
[46] = tested on: CCRF-CEM leukemia
[47] = tested on: UACC-62 melanoma
[48] = tested on: ACHN renal
[49] = tested on: COLO 205 colon
[50] = tested on: NCI/ADR-RES ovarian
[51] = tested on: UACC-257 melanoma
[52] = tested on: SF-268 CNS
[53] = tested on: OVCAR-3 ovarian
[54] = tested on: MCF7 breast
[55] = tested on: U251 CNS
[56] = tested on: NCI-H522 lung
[57] = tested on: HCC-2998 colon
[58] = tested on: BT-549 breast
[59] = tested on: LOX IMVI melanoma

Q: Which TGI [1] does the source give for `CC12CCC(CC(=O)/C1=C(/Br)I)C2(C)C` (stereo not drawn) here?
A: Its TGI is 25.8 µM.

Q: And the TGI [2]?
A: The TGI was 32.1 µM.

Q: And the TGI [3]?
A: Its TGI is 39 µM.

Q: What about the TGI [4] of the same molecule?
A: Its TGI is 12 µM.

Q: What about the TGI [5] of the same molecule?
A: The TGI was 32 µM.

Q: And the TGI [6]?
A: Its TGI is 32.1 µM.

Q: What about the TGI [7] of the same molecule?
A: Its TGI is 8.76 µM.

Q: And the TGI [8]?
A: Its TGI is 23.6 µM.

Q: And the TGI [9]?
A: Its TGI is 34.3 µM.

Q: What about the TGI [10] of the same molecule?
A: The TGI was 28.3 µM.

Q: What about the TGI [11] of the same molecule?
A: The TGI was 17.6 µM.

Q: And the TGI [12]?
A: The TGI was 27.9 µM.

Q: What about the TGI [13] of the same molecule?
A: The TGI was 45.4 µM.

Q: And the TGI [14]?
A: Its TGI is 36.6 µM.

Q: And the TGI [15]?
A: The TGI was 26.7 µM.

Q: What about the TGI [16] of the same molecule?
A: The TGI was 26.4 µM.

Q: And the TGI [17]?
A: The TGI was 29.9 µM.

Q: And the TGI [18]?
A: Its TGI is 24.9 µM.

Q: What about the TGI [19] of the same molecule?
A: Its TGI is 20.6 µM.

Q: And the TGI [20]?
A: The TGI was 34.8 µM.

Q: What about the TGI [21] of the same molecule?
A: The TGI was 30.4 µM.

Q: What about the TGI [22] of the same molecule?
A: Its TGI is 29.2 µM.

Q: What about the TGI [23] of the same molecule?
A: The TGI was 31.4 µM.

Q: What about the TGI [24] of the same molecule?
A: Its TGI is 29.1 µM.

Q: What about the TGI [25] of the same molecule?
A: The TGI was 34.4 µM.

Q: And the TGI [26]?
A: The TGI was 30.3 µM.

Q: What about the TGI [27] of the same molecule?
A: Its TGI is 25 µM.

Q: What about the TGI [28] of the same molecule?
A: Its TGI is 31 µM.

Q: What about the TGI [29] of the same molecule?
A: Its TGI is 3.03 µM.

Q: What about the TGI [30] of the same molecule?
A: The TGI was 29.6 µM.

Q: And the TGI [31]?
A: The TGI was 30.2 µM.

Q: And the TGI [32]?
A: The TGI was 23.9 µM.

Q: What about the TGI [33] of the same molecule?
A: Its TGI is 29.3 µM.

Q: And the TGI [34]?
A: The TGI was 44 µM.

Q: And the TGI [35]?
A: Its TGI is 46.4 µM.

Q: And the TGI [36]?
A: Its TGI is greater than 100 µM.

Q: What about the TGI [37] of the same molecule?
A: The TGI was 26.4 µM.

Q: And the TGI [38]?
A: Its TGI is 28.6 µM.

Q: And the TGI [39]?
A: Its TGI is 32.9 µM.

Q: And the TGI [40]?
A: The TGI was 33.7 µM.

Q: And the TGI [41]?
A: The TGI was 31.6 µM.

Q: And the TGI [42]?
A: The TGI was 31.2 µM.

Q: And the TGI [43]?
A: Its TGI is 31.2 µM.

Q: And the TGI [44]?
A: Its TGI is 30.7 µM.

Q: What about the TGI [45] of the same molecule?
A: Its TGI is 23.6 µM.

Q: And the TGI [46]?
A: Its TGI is 30.5 µM.

Q: What about the TGI [47] of the same molecule?
A: Its TGI is 30.4 µM.

Q: What about the TGI [48] of the same molecule?
A: Its TGI is 32.1 µM.

Q: And the TGI [49]?
A: The TGI was 31.9 µM.

Q: And the TGI [50]?
A: The TGI was 29.8 µM.

Q: What about the TGI [51] of the same molecule?
A: The TGI was 29.8 µM.

Q: What about the TGI [52] of the same molecule?
A: The TGI was 28.9 µM.

Q: And the TGI [53]?
A: Its TGI is 26.9 µM.

Q: Which results are given for `C[C@@H]1OC(=O)C[C@H]2CC(=O)N(CCC3CN(C(=O)OCc4ccccc4)c4ccccc43)C[C@@H]21` (stereo partly drawn)?
A: TGI [1]: > 100 µM; TGI [2]: > 100 µM; TGI [5]: > 100 µM; TGI [54]: > 100 µM; TGI [6]: > 100 µM; TGI [7]: > 100 µM; TGI [8]: > 100 µM; TGI [9]: > 100 µM; TGI [10]: > 100 µM; TGI [11]: > 100 µM; TGI [12]: > 100 µM; TGI [13]: > 100 µM; TGI [14]: > 100 µM; TGI [15]: > 100 µM; TGI [16]: > 100 µM; TGI [18]: > 100 µM; TGI [19]: > 100 µM; TGI [20]: > 100 µM; TGI [21]: > 100 µM; TGI [23]: > 100 µM; TGI [24]: > 100 µM; TGI [25]: > 100 µM; TGI [26]: > 100 µM; TGI [27]: > 100 µM; TGI [28]: > 100 µM; TGI [29]: > 100 µM; TGI [31]: > 100 µM; TGI [32]: > 100 µM; TGI [33]: > 100 µM; TGI [34]: > 100 µM; TGI [35]: > 100 µM; TGI [36]: > 100 µM; TGI [37]: > 100 µM; TGI [38]: > 100 µM; TGI [39]: > 100 µM; TGI [55]: > 100 µM; TGI [40]: > 100 µM; TGI [41]: > 100 µM; TGI [42]: > 100 µM; TGI [43]: > 100 µM; TGI [56]: > 100 µM; TGI [44]: > 100 µM; TGI [45]: > 100 µM; TGI [47]: > 100 µM; TGI [48]: > 100 µM; TGI [49]: > 100 µM; TGI [57]: > 100 µM; TGI [58]: > 100 µM; TGI [50]: > 100 µM; TGI [51]: > 100 µM; TGI [52]: > 100 µM; TGI [53]: > 100 µM

Q: What does the source list for `C/C(CC(O)(C(F)(F)F)C(F)(F)F)=N\NC(N)=O`?
A: TGI [1]: > 10 µM; TGI [2]: > 10 µM; TGI [3]: > 10 µM; TGI [4]: > 10 µM; TGI [5]: > 10 µM; TGI [54]: > 10 µM; TGI [6]: > 10 µM; TGI [8]: > 10 µM; TGI [9]: > 10 µM; TGI [10]: > 10 µM; TGI [11]: > 10 µM; TGI [12]: > 10 µM; TGI [13]: > 10 µM; TGI [14]: > 10 µM; TGI [15]: > 10 µM; TGI [16]: > 10 µM; TGI [17]: > 10 µM; TGI [18]: > 10 µM; TGI [19]: > 10 µM; TGI [20]: > 10 µM; TGI [21]: > 10 µM; TGI [22]: > 10 µM; TGI [23]: > 10 µM; TGI [24]: > 10 µM; TGI [25]: > 10 µM; TGI [26]: > 10 µM; TGI [27]: > 10 µM; TGI [28]: > 10 µM; TGI [29]: > 10 µM; TGI [30]: > 10 µM; TGI [31]: > 10 µM; TGI [32]: > 10 µM; TGI [33]: > 10 µM; TGI [34]: > 10 µM; TGI [35]: > 10 µM; TGI [36]: > 10 µM; TGI [59]: > 10 µM; TGI [37]: > 10 µM; TGI [38]: > 10 µM; TGI [39]: > 10 µM; TGI [55]: > 10 µM; TGI [40]: > 10 µM; TGI [41]: > 10 µM; TGI [42]: > 10 µM; TGI [43]: > 10 µM; TGI [56]: > 10 µM; TGI [44]: > 10 µM; TGI [45]: > 10 µM; TGI [46]: > 10 µM; TGI [47]: > 10 µM; TGI [48]: > 10 µM; TGI [49]: > 10 µM; TGI [57]: > 10 µM; TGI [50]: > 10 µM; TGI [51]: > 10 µM; TGI [52]: > 10 µM; TGI [53]: > 10 µM

Q: Which results are given for `[N-]=[N+]=Nc1c(Cc2ccccc2)c(Cl)nc2ccccc12`?
A: TGI [1]: 41.8 µM; TGI [2]: 51 µM; TGI [4]: 56.6 µM; TGI [5]: 61.2 µM; TGI [54]: 58.8 µM; TGI [6]: > 100 µM; TGI [7]: > 100 µM; TGI [8]: 30 µM; TGI [9]: 46.5 µM; TGI [10]: 49.4 µM; TGI [11]: 56.7 µM; TGI [12]: > 100 µM; TGI [13]: > 100 µM; TGI [14]: > 100 µM; TGI [15]: > 100 µM; TGI [16]: 83.7 µM; TGI [17]: 59.7 µM; TGI [18]: 53 µM; TGI [19]: 39.6 µM; TGI [20]: > 100 µM; TGI [21]: > 100 µM; TGI [22]: 41.3 µM; TGI [23]: > 100 µM; TGI [24]: > 100 µM; TGI [25]: > 100 µM; TGI [26]: 33.4 µM; TGI [27]: > 100 µM; TGI [28]: 93.3 µM; TGI [29]: 62.1 µM; TGI [30]: 73.8 µM; TGI [31]: > 100 µM; TGI [32]: > 100 µM; TGI [33]: > 100 µM; TGI [34]: 54.4 µM; TGI [35]: > 100 µM; TGI [36]: > 100 µM; TGI [59]: 38.5 µM; TGI [37]: 87.3 µM; TGI [38]: 37.2 µM; TGI [39]: 53 µM; TGI [40]: 65.3 µM; TGI [41]: 64.4 µM; TGI [42]: > 100 µM; TGI [43]: 92.3 µM; TGI [56]: > 100 µM; TGI [44]: 83.1 µM; TGI [45]: > 100 µM; TGI [46]: > 100 µM; TGI [47]: 68.8 µM; TGI [48]: > 100 µM; TGI [49]: 35.2 µM; TGI [57]: > 100 µM; TGI [50]: > 100 µM; TGI [51]: > 100 µM; TGI [52]: > 100 µM; TGI [53]: 38.4 µM
